Laboratory results published in PMC3681751, “Identification of a Novel Antimicrobial Peptide from Human Hepatitis B Virus Core Protein Arginine-Rich Domain (ARD)” (PLoS Pathogens, 2013).
Residues, ends and D or L forms follow the SMILES beside them.

Tests used:
K. pneumonia [1] = test: Killing kinetics; type: cell-based, Klebsiella pneumoniae; conditions: 4 µM peptide, 37°C, triplicates
Protocol: (§1) For measurement of killing kinetics, bacteria and peptides were prepared as described above. Fifty µl of bacteria were mixed with fifty µl of peptides at the concentrations corresponding to MBC and were incubated at 37°C. At the indicated time, bacteria were serially diluted and placed on Mueller-Hinton broth agar plates for the viability measurement.

K. pneumonia [2] = test: SYTOX Green uptake (membrane permeabilization); type: cell-based, Klebsiella pneumoniae; conditions: 4 µM peptide; 10^7 CFU, 1 µM SYTOX Green, 37°C
Protocol: Briefly, bacteria (10^7 CFU) were prepared and mixed with 1 µM SYTOX Green (Invitrogen) for 15 minutes in the dark. […] Melittin (Sigma), the major toxin of bee venom, was used as a positive control to provide maximal permeabilization.

[3] = LPS/Lipid A competition ELISA; type: binding; conditions: 10 nM peptide, 1 µg LPS per well, E. coli Lipid A 0 to 10 µg/ml, 1 hour 37°C
Protocol: Several kinds of peptide-LPS or peptide-Lipid A binding assays were performed in this study: 1) Streptavidine-conjugated beads (Dynabeads MyOne Streptavidin T1, Invitrogen) were blocked by P. aeruginosa LPS (Sigma) at 37°C for 1.5 hour. After washing with PBST (PBS, pH 7.4 containing 0.1% (w/v) Tween-20), aliquots containing 250 pmol streptavidine-conjugated beads were incubated with a reaction mixture overnight at 4°C. The reaction mixture was prepared by mixing increasing amounts of biotinylated peptide HBc147-183 (0, 0.004, 0.02, 0.1, 0.5 and 2.5 µM) and 5 µg/ml P. aeruginosa LPS (Sigma) or 200 µg/ml E. coli lipid A (Sigma), at 37°C for 3 hour. After incubation overnight at 4°C, the reduction of LPS (or Lipid A) in the supernatants were measured by the Limulus Amebocyte Lysate (LAL) test (Charles River Endosafe) with an ELISA reader (Molecular Devices). The amount (EU/ml) of LPS was calculated according to the standard curve prepared with Endosafe Control Srandard Endotoxin. […] After trypsinization, the trypsin-released LPS in the supernatants were collected and measured by the Limulus Amebocyte Lysate (LAL) test. […] Plate-bound HBc147-183 was measured by streptavidin conjugated with HRP (1∶10000 dilution) for 1 hour at 37°C. […] The absorption was measured at 450 nm with a reference wavelength at 655 nm.

S. aureus = test: Killing kinetics; type: cell-based, Staphylococcus aureus; conditions: 4 µM peptide (1×MBC), 37°C, triplicates
Protocol: as §1

[4] = test system: Staphylococcus aureus ATCC 19636; test: Bacterial load in infected mice; type: in vivo, mouse; conditions: 10 mg/kg i.p. at 1 hour, sampled 4 hours post-inoculation, n = 5
Protocol: Three-week old male ICR mice (19 to 21 g) were purchased from BioLASCO (Taiwan). Overnight culture of bacteria in BHI broth (Difco) was subcultured in fresh BHI broth to log phase. Inoculums were diluted in BHI broth to indicated densities. To test the acute toxicity of ARD peptide in vivo, ICR male mice were inoculated intraperitoneally (i.p.) with 10 and 20 mg/kg HBc147-183 in PBS, respectively. Each group contained 5 mice. After peptide injection, the number of dead mice was recorded daily for 7 days post-injection. To test the antimicrobial activity of the ARD peptide in vivo, all mice were inoculated i.p. with Staphylococcus aureus ATCC 19636 (4×10^6 CFU/mouse) in BHI broth. Peptide HBc147-183 (10 mg/kg) was administered i.p. at 1, 1.5 and 2 hours post-inoculation. PBS (10 ml/kg) control was administered at 1 hour post-inoculation. […] Mortality was monitored daily for 7 days post-inoculation. […] The mice were anesthetized first before transferring to the IVIS imaging system (IVIS spectrum), and luminescence was measured with an exposure time of 1 minutes or less. The image system measured the number of photons and translated the data to false color images that depicted the region of strong luminescence with red, moderate luminescence with yellow and green, and mild luminescence with blue. […] Total flux (RLU) of region of interest (ROI) was quantified by the IVIS imaging software.

With `CC(C)[C@H](NC(=O)[C@@H](NC(=O)[C@@H](N)[C@@H](C)O)C(C)C)C(=O)N[C@@H](CCCNC(=N)N)C(=O)N[C@@H](CCCNC(=N)N)C(=O)N[C@@H](CCCNC(=N)N)C(=O)NCC(=O)N[C@@H](CCCNC(=N)N)C(=O)N[C@@H](CO)C(=O)N1CCC[C@H]1C(=O)N[C@@H](CCCNC(=N)N)C(=O)N[C@@H](CCCNC(=N)N)C(=O)N[C@@H](CCCNC(=N)N)C(=O)N[C@H](C(=O)N1CCC[C@H]1C(=O)N[C@@H](CO)C(=O)N1CCC[C@H]1C(=O)N[C@@H](CCCNC(=N)N)C(=O)N[C@@H](CCCNC(=N)N)C(=O)N[C@@H](CCCNC(=N)N)C(=O)N[C@@H](CCCNC(=N)N)C(=O)N[C@@H](CO)C(=O)N[C@@H](CCC(N)=O)C(=O)N[C@@H](CO)C(=O)N1CCC[C@H]1C(=O)N[C@@H](CCCNC(=N)N)C(=O)N[C@@H](CCCNC(=N)N)C(=O)N[C@@H](CCCNC(=N)N)C(=O)N[C@@H](CCCNC(=N)N)C(=O)N[C@@H](CO)C(=O)N[C@@H](CCC(N)=O)C(=O)N[C@@H](CO)C(=O)N[C@@H](CCCNC(=N)N)C(=O)N[C@@H](CCC(=O)O)C(=O)N[C@@H](CO)C(=O)N[C@@H](CCC(N)=O)C(=O)N[C@@H](CS)C(=O)O)[C@@H](C)O` [HBc147-183] (H-TVVRRRGRSPRRRTPSPRRRRSQSPRRRRSQSRESQC-OH; N-terminus and C-terminus assumed) the “Time to complete killing” value (K. pneumonia [1]) was 180 min, the “Membrane permeabilization (SYTOX Green uptake)” value (K. pneumonia [2]) was “not able to induce membrane permeabilization” and the “Binding of peptide to plate-coated LPS with increasing Lipid A” value [3] was “significantly decreased”. For the same compound, the “Time to complete killing” value (S. aureus) was 120 min, the “Bacterial load in blood, liver and spleen” value [4] was ~10^4 cfu/ml and the “Reduction of bacterial load in blood, liver and spleen vs PBS control” value ([4]; P<0.01) was 100 fold.
